The values below come from ChEMBL document CHEMBL1201862, “PubChem BioAssay data set” (2004).

Some test systems named below: XF498; NCI-H460; HOP-18; SN12C; HOP-92; M19-MEL; HT-29; HCT-15; KM-20L2; UACC-257; DMS-114; SF-268; ACHN; HCC 2998; RXF 393; HCT-116; SF-539; SF-295.
What all share (assay): NCI-60 cell line screen, 48 h

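48-hour exposure; five concentrations; linearly interpolated endpoints. Abbreviation: GI50, concentration required for 50% inhibition of growth.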 The source made the active and inactive calls. Cut-off read from the data, not from the text of the source: active = GI50 up to about 1.1 µM and inactive = higher.

With `O=C(CCC(=O)Nc1ccccc1C(F)(F)F)N/N=C1\C(=N\NC(=O)CCC(=O)Nc2ccccc2C(F)(F)F)C(c2ccc3c(c2)OCO3)Oc2ccccc21` (stereo not drawn), the GI50 was 34.2 µM (inactive) in the assay on XF498; 4.02 µM (inactive) with NCI-H460; > 100 µM (inactive) in the assay with HOP-18; 6.46 µM (inactive) in the assay on SN12C; 17.9 µM (inactive) in the assay on HOP-92; 18.4 µM (inactive) in the assay with M19-MEL. Besides, the GI50 with HT-29 is 35.9 µM (inactive); in the assay on HCT-15 it was 5.33 µM; in the assay with KM-20L2, 97.1 µM (inactive); with UACC-257, > 100 µM (inactive); in the assay on DMS-114, 2.74 µM (inactive); in the assay with SF-268, 3.01 µM (inactive). Moreover, the GI50 is 6.46 µM (inactive) in the assay with ACHN; > 100 µM (inactive) in the assay on HCC 2998; 11.8 µM (inactive) in the assay with RXF 393; 5.9 µM (inactive) with HCT-116; 12 µM (inactive) in the assay on SF-539; 8.32 µM (inactive) in the assay on SF-295.
With `C=C1C(=O)C[C@@]23CCC[C@@]12CC(O)C3` (stereo partly drawn), the GI50 is 22.6 µM (inactive) with XF498; 20.8 µM (inactive) with NCI-H460; 6.79 µM (inactive) in the assay on HOP-18; 16.9 µM (inactive) with SN12C; 19.3 µM (inactive) in the assay on HOP-92; 24.8 µM (inactive) in the assay on M19-MEL. In addition, the GI50 in the assay with HT-29 was 14.6 µM (inactive); in the assay on HCT-15, 13 µM; in the assay on KM-20L2, 21.8 µM (inactive); with UACC-257, 18.7 µM (inactive); in the assay with DMS-114, 16.7 µM (inactive); in the assay on SF-268, 43.7 µM (inactive). Also, the GI50 in the assay on HCC 2998 is > 46.2 µM (inactive); with RXF 393, 13.7 µM (inactive); in the assay with HCT-116, 19 µM (inactive); with SF-539, 25.6 µM (inactive); in the assay on SF-295 it was 37.8 µM (inactive).
Take `[N-]=[N+]=CC(=O)OCC(N)C(=O)O` (stereo not drawn): the GI50 with XF498 was 5.96 µM (inactive); in the assay on NCI-H460, 0.411 µM (active); in the assay with HOP-18, 625 µM (inactive); in the assay on SN12C, 0.421 µM (active); in the assay on HOP-92 it was 82 µM (inactive); in the assay with M19-MEL, 1.41 µM (inactive). Further, the GI50 with HT-29 was 0.177 µM (active); with HCT-15, 0.297 µM; with KM-20L2 it was 0.157 µM (active); in the assay with UACC-257, 95.9 µM (inactive); with DMS-114, 1.59 µM (inactive); in the assay on SF-268, 0.685 µM (active). Further, the GI50 with HCC 2998 was 0.362 µM (active); in the assay with RXF 393 it was 15.7 µM (inactive); in the assay with HCT-116 it was 0.403 µM (active); in the assay with SF-539, 0.13 µM (active); in the assay on SF-295, 0.923 µM (active).
On to `CCOC(=O)c1ccc(N[C@@H]2c3cc4c(cc3C(c3cc(OC)c(O)c(OC)c3)[C@H]3C(=O)OCC32)OCO4)cc1O` (stereo partly drawn), for which the GI50 in the assay with XF498 is 1.3 µM (inactive); with NCI-H460, < 0.01 µM (active); with HOP-18 it was 2.25 µM (inactive); in the assay with SN12C, 1.64 µM (inactive); in the assay on HOP-92, 1.19 µM (inactive); in the assay on M19-MEL it was 0.893 µM (active). Moreover, the GI50 with HT-29 was 0.546 µM (active); in the assay with HCT-15 it was 1.09 µM; in the assay with KM-20L2 it was 2.2 µM (inactive); with UACC-257, 2.91 µM (inactive); in the assay with DMS-114, 0.56 µM (active); in the assay on SF-268 it was 0.789 µM (active). Further, the GI50 was 1.92 µM (inactive) in the assay on HCC 2998; 1.88 µM (inactive) in the assay with RXF 393; 0.505 µM (active) in the assay on HCT-116; 0.685 µM (active) in the assay on SF-539; 0.498 µM (active) in the assay with SF-295.
For the compound `CC(=O)OCC1OC(n2cc(F)c(=O)[nH]c2=O)C(NC(=O)OCc2ccccc2)C(OC(C)=O)C1OC(C)=O` (stereo not drawn), the GI50 with XF498, with NCI-H460, in the assay with HOP-18, with SN12C, in the assay with HOP-92 and in the assay with M19-MEL was > 100 µM (inactive) each time. Further, the GI50 in the assay with HT-29 is > 100 µM (inactive); in the assay with HCT-15, over 100 µM; in the assay with KM-20L2 it was > 100 µM (inactive); in the assay on UACC-257, > 100 µM (inactive); in the assay on DMS-114, > 100 µM (inactive); in the assay with SF-268, > 100 µM (inactive). In addition, the GI50 in the assay on HCC 2998, with RXF 393, in the assay on HCT-116, in the assay on SF-539 and in the assay on SF-295 was > 100 µM (inactive) each time.
Turning to `Nc1ncnc2c1ncn2[C@@H]1O[C@H](COP(=O)(O)O)[C@@H](O)[C@@H]1O`, the GI50 in the assay on XF498 is > 34.4 µM (inactive); with NCI-H460, > 50 µM (inactive); in the assay with HOP-18, > 50 µM (inactive); in the assay with SN12C, > 50 µM (inactive); with HOP-92, > 31.3 µM (inactive); in the assay with M19-MEL, > 50 µM (inactive). Besides, the GI50 was > 50 µM (inactive) in the assay on HT-29; over 50 µM in the assay on HCT-15; > 50 µM (inactive) with KM-20L2; > 50 µM (inactive) in the assay with UACC-257; > 50 µM (inactive) in the assay with DMS-114; > 50 µM (inactive) in the assay with SF-268. For the same compound, the GI50 in the assay on HCC 2998, with RXF 393, in the assay on HCT-116, with SF-539 and in the assay with SF-295 was > 50 µM (inactive) in each case.
Consider `CCCCC(C)C1CCC2(C)C=CC(=O)C(C)=C2C1O` (stereo not drawn), for which the GI50 with XF498, in the assay on NCI-H460, in the assay on HOP-18, in the assay on SN12C, in the assay with HOP-92 and in the assay on M19-MEL was > 100 µM (inactive) in each case. Moreover, the GI50 in the assay on HT-29 was > 100 µM (inactive); in the assay with HCT-15, over 100 µM; in the assay on KM-20L2, > 100 µM (inactive); with UACC-257 it was > 100 µM (inactive); with DMS-114, > 100 µM (inactive); in the assay with SF-268 it was > 100 µM (inactive). Further, the GI50 in the assay on HCC 2998, with RXF 393, with HCT-116, in the assay on SF-539 and in the assay with SF-295 was > 100 µM (inactive) each time.
Take `Nc1ccc2[nH]c3c(-c4ccccc4)nccc3c2c1`: the GI50 is 61.2 µM (inactive) with XF498; 11.3 µM (inactive) with NCI-H460; > 100 µM (inactive) with HOP-18; > 87.7 µM (inactive) in the assay on SN12C; 39.1 µM (inactive) in the assay with HOP-92; 64.6 µM (inactive) in the assay on M19-MEL. For the same compound, the GI50 with HT-29 was 36.1 µM (inactive); with HCT-15 it was 41.3 µM; with KM-20L2, 48.3 µM (inactive); in the assay with UACC-257 it was > 75.3 µM (inactive); with DMS-114, 37.6 µM (inactive); in the assay with SF-268 it was > 100 µM (inactive). Moreover, the GI50 was 28.8 µM (inactive) in the assay with HCC 2998; 38.2 µM (inactive) with RXF 393; 34.6 µM (inactive) in the assay with HCT-116; 71.6 µM (inactive) in the assay with SF-539; 41.2 µM (inactive) in the assay on SF-295.
Take `COC1=CC(=O)c2ccccc2C1(C)C1=NC(C)(C)CO1` (stereo not drawn): the GI50 in the assay with XF498, in the assay on NCI-H460, in the assay with HOP-18, with SN12C, with HOP-92 and in the assay on M19-MEL was > 100 µM (inactive) each time. Moreover, the GI50 in the assay on HT-29 was > 100 µM (inactive); in the assay on HCT-15, over 100 µM; in the assay on KM-20L2, > 100 µM (inactive); with UACC-257, > 100 µM (inactive); in the assay with DMS-114 it was > 100 µM (inactive); in the assay on SF-268, > 100 µM (inactive). The GI50 with ACHN, in the assay with RXF 393, in the assay with HCT-116, in the assay on SF-539 and in the assay on SF-295 was > 100 µM (inactive) in each case.
As for `CC1C(O)C2(Oc3cc4c(c5c3[C@@H](CC5O)[C@H]2C)CCC2Cc3nc5c(nc3C[C@@]42C)CC2CCC3C4=C[C@H]6O[C@@]7(O[C@@](C)(CO)C[C@@H]7O)C(C)[C@@]6(O)[C@]4(C)[C@@H](O)CC3[C@]2(C)C5)OC1(C)C` (stereo partly drawn), the GI50 was 0.115 µM (active) with XF498; 0.0735 µM (active) in the assay with NCI-H460; 2.01 µM (inactive) in the assay with HOP-18; 0.377 µM (active) in the assay on SN12C; 0.204 µM (active) with HOP-92; 0.863 µM (active) in the assay with M19-MEL. The GI50 in the assay with HT-29 was 0.0977 µM (active); in the assay on HCT-15, 0.649 µM; with KM-20L2, 0.0975 µM (active); in the assay with UACC-257, 0.614 µM (active); in the assay on DMS-114 it was 0.104 µM (active); with SF-268 it was 0.0904 µM (active). Besides, the GI50 in the assay on HCC 2998 was 0.536 µM (active); in the assay with RXF 393 it was 0.0269 µM (active); in the assay on HCT-116, 0.12 µM (active); with SF-539, 0.078 µM (active); in the assay on SF-295 it was 0.00531 µM (active).
As to `O=NN(CCCl)C(=O)NC1CCSc2ccccc21` (stereo not drawn), the GI50 is > 100 µM (inactive) in the assay with XF498; > 69.3 µM (inactive) in the assay with NCI-H460; > 69 µM (inactive) with HOP-18; > 100 µM (inactive) in the assay with SN12C; > 100 µM (inactive) in the assay with HOP-92; > 100 µM (inactive) in the assay on M19-MEL. Further, the GI50 in the assay on HT-29 is > 100 µM (inactive); in the assay with HCT-15 it was over 100 µM; with KM-20L2 it was > 100 µM (inactive); in the assay with UACC-257 it was > 100 µM (inactive); in the assay on DMS-114, 47.2 µM (inactive); in the assay on SF-268, 20.9 µM (inactive). Also, the GI50 is > 100 µM (inactive) in the assay on HCC 2998; > 100 µM (inactive) with RXF 393; > 100 µM (inactive) in the assay on HCT-116; 27.4 µM (inactive) with SF-539; 57.8 µM (inactive) in the assay with SF-295.
